Experimental data published in patent US20130137131A1, “System and Method of Producing Volatile Organic Compounds from Fungi” (priority 2010, published 2013).

Test system: Hypoxylon sp. CI-4
Assay: Response of Hypoxylon sp. CI-4 to epigenetic modifying agents
Type: cell-based
Details: lower concentrations seemingly ineffective
Text: The wild-type Hypoxylon sp. had previously been found as an endophyte in Persea indica growing in the Laurisilva, Tenerife, Spain (Tomsheck et al., 2010, Microb Ecol 60:903-914). The fungus, growing on potato dextrose agar (PDA), was hyphal tipped in order to obtain a genetically pure strain, CI-4. This strain was used for epigenetic modulation using a histone deacetylase inhibitor, suberoylanilide hydroxamic acid (SAHA) and a DNA methyltransferase inhibitor, 5-azacytidine (AZA) as the modulating compounds (Cichewicz, 2010, Nat Prod Rep 27:11-22). Stock solutions of these compounds were prepared in DMSO and sterile deionized water, respectively. The fungus was grown on PDA supplemented with different concentrations of the epigenetic modulators (1, 5, 10, 20, 30, 50 and 100 μM) for 15 days. The numerous variants resulting from concentrations of modulators producing the most notable cultural, biological and VOC changes were selected for future study. The strains studied here were CI-4 (wild-type), CI4-B (strain selected after a 15 day exposure of CI-4 to 50 μM SAHA, hyphal tipped, transferred to PDA and studied without subsequent exposure to SAHA), CI4-SAHA (strain CI-4 exposed to 50 μM SAHA in all studies), and CI4-AZA (strain CI-4 exposed to 100 μM AZA in all studies).
Successful attempts were made to acquire a response of Hypoxylon sp. […]

Row | SMILES | Changes in the morphology and bioactivities of the cultures (growth of strain CI-4 on PD broth with 100 μM AZA) | Changes in the morphology and bioactivities of the cultures (growth of strain CI-4 on PD broth with 50 μM SAHA)
1 | Nc1ncn([C@@H]2O[C@H](CO)[C@@H](O)[C@H]2O)c(=O)n1 [AZA, 4-amino-1-(β-D-ribofuranosyl)-1,3,5-triazin-2(1H)-one] | the most striking changes in the morphology and bioactivities of the cultures | 
2 | O=C(CCCCCCC(=O)Nc1ccccc1)NO [SAHA, N-hydroxy-N′-phenyl-octanediamide] |  | the most striking changes in the morphology and bioactivities of the cultures
